Experimental data from patent US20150299143A1, “SUBSTITUTED TRIAZOLE AND IMIDAZOLE COMPOUNDS” (HOFFMANN-LA ROCHE INC., priority 2012, published 2015).
pIC50: −log10 of the molar value.

Tests used:
[1] = test system: DSS-induced colitis model in mice; details: cited from earlier work
MRL/lpr lupus-prone mice = details: cited from earlier work
[2] = test system: mouse CAIA and CIA arthritis models; details: cited from earlier work
[3] = test system: Th1/17 differentiation, B cell effector functions and production of inflammatory cytokines (IL-6, TNF-α, IL-23); details: cited from earlier work
β 1i (caspase-like) = target: T1, β 1i (caspase-like) (Homo sapiens, UniProt P28065+P40306); experiment: Cell-Based Proteasome subunit activity/selectivity assay, β1i, substrate (PAL)2Rh110; details: Ramos cells; substrate (PAL)2Rh110 (β1i); highest concentration tested 20 μM; read-out: Ic50:ramos:rh110-(pal)2
T1 construct: protease activity associated with the proteasome complex in cultured cells; endogenous in cells; host or cells: Ramos cells
Procedure, shortened: (§1)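 Subunit activity in cultured cells read with subunit-selective fluorogenic Rh110 substrates: (LLE)2 for β1c, (PAL)2 for β1i, (KQL)2 for β2c/2i, (WLA)2 for β5c. Cells exposed to 4-fold serially diluted compound (top 20 μM) 30 min at 37 °C, then substrate 120 min at room temperature; fluorescence 500/519 nm.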

β 2c/2i (trypsin-like) = experiment: Cell-Based Proteasome subunit activity/selectivity assay, β2c/2i, substrate (KQL)2Rh110; details: Ramos cells; substrate (KQL)2Rh110 (β2c/2i); highest concentration tested 20 μM
Procedure, shortened: as §1

β 1c (caspase-like) = target: T2, β 1c (caspase-like) (Homo sapiens, UniProt P28072+Q99436); experiment: Cell-Based Proteasome subunit activity/selectivity assay, β1c, substrate (LLE)2Rh110; details: Ramos cells; substrate (LLE)2Rh110 (β1c); highest concentration tested 20 μM; read-out: Ic50:ramos:rh110-(lle)2
T2 construct: protease activity associated with the proteasome complex in cultured cells; endogenous in cells; host or cells: Ramos cells
Procedure, shortened: as §1

[4] = target: T3, β5c (chymotrypsin-like activity) (Homo sapiens, UniProt P20618+P28074); experiment: Cell-Based Proteasome subunit activity/selectivity assay, β5c, substrate (WLA)2Rh110; details: Ramos cells; substrate (WLA)2Rh110 (β5c); highest concentration tested 20 μM; read-out: Ic50:ramos:rh110-(wla)2
T3 construct: protease activity associated with the proteasome complex in cultured cells; endogenous in cells; host or cells: Ramos cells
Procedure, shortened: as §1

[5] = target: T4, β 5i (chymotrypsin-like activity) (Homo sapiens, UniProt P20618+P28062); experiment: Cell-Based Proteasome subunit activity/selectivity assay, β5i, substrate (ANW)2Rh110; details: Ramos cells; substrate (ANW)2Rh110 (β5i); highest concentration tested 20 μM; read-out: Ic50:ramos:ac-(anw)2-r110
T4 construct: protease activity associated with the proteasome complex in cultured cells; endogenous in cells; host or cells: Ramos cells
Procedure, shortened: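 Cell-based fluorogenic assay measuring chymotrypsin-like β5i proteasome activity using the substrate (ANW)2Rh110. Cultured cells received 0.5 μl of 100× 4-fold serial diluted compounds or DMSO per well, were incubated 30 minutes at 37° C, then equilibrated 15 minutes at room temperature. After shaking one minute @ 700 rpm and 120 min room-temperature incubation, fluorescence was read at 500 nm excitation/519 nm emission on an Envision reader.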

Row | Structure (SMILES) | pIC50 (β 1i (caspase-like)) | pIC50 (β 2c/2i (trypsin-like)) | pIC50 (β 1c (caspase-like)) | pIC50 [4] | pIC50 [5] | inflammation and tissue destruction [1] | disease progression (MRL/lpr lupus-prone mice) | plasma cells numbers and levels of anti-dsDNA IgG (MRL/lpr lupus-prone mice) | disease score [2] | block of Th1/17 differentiation, B cell effector functions and production of inflammatory cytokines (IL-6, TNF-α, IL-23) [3]
1 | COc1ccc(C[C@H](NC(=O)[C@H](C)NC(=O)CN2CCOCC2)C(=O)N[C@@H](Cc2ccccc2)C(=O)[C@@]2(C)CO2)cc1 [PR-957] | – | – | – | – | – | reduced inflammation and tissue destruction | prevented disease progression | reduced plasma cells numbers and levels of anti-dsDNA IgG | significantly decrease disease score | potently block
2 | CCc1ccc(C(C#N)NC(=O)c2cn(CCNC(=O)c3ccc(S(C)(=O)=O)cc3Cl)nn2)cc1 (stereo not shown) [Example 41, 1-[2-(2-Chloro-4-methanesulfonyl-benzoylamino)-ethyl]-1H-[1,2,3]triazole-4-carboxylic acid [cyano-(4-ethyl-phenyl)-methyl]-amide] | ≤ 4.70 | ≤ 4.70 | ≤ 4.70 | ≤ 4.70 | 6.55 | – | – | – | – | –
3 | CCc1ccc(C(C#N)NC(=O)c2cn(CCNC(=O)CC3(O)Cc4ccccc4C3)nn2)cc1 (stereo not shown) [Example 22, 1-{2-[2-(2-Hydroxy-indan-2-yl)-acetylamino]-ethyl}-1H-[1,2,3]triazole-4-carboxylic acid [cyano-(4-ethyl-phenyl)-methyl]-amide] | ≤ 4.70 | ≤ 4.70 | ≤ 4.70 | ≤ 4.70 | 5.00 | – | – | – | – | –

The next lines start with results.

Row | pIC50 (β 1i (caspase-like)) | pIC50 (β 2c/2i (trypsin-like)) | pIC50 (β 1c (caspase-like)) | pIC50 [4] | pIC50 [5] | Structure (SMILES) | inflammation and tissue destruction [1] | disease progression (MRL/lpr lupus-prone mice) | plasma cells numbers and levels of anti-dsDNA IgG (MRL/lpr lupus-prone mice) | disease score [2] | block of Th1/17 differentiation, B cell effector functions and production of inflammatory cytokines (IL-6, TNF-α, IL-23) [3]
4 | ≤ 4.70 | ≤ 4.70 | ≤ 4.70 | ≤ 4.70 | 5.25 | COc1cc(OC(F)(F)F)ccc1C(=O)NCCn1cc(C(=O)NC(C#N)c2ccc(C(F)(F)F)cc2)nn1 (stereo not shown) [Example 71, 1-[2-(2-Methoxy-4-trifluoromethoxy-benzoylamino)-ethyl]-1H-[1,2,3]triazole-4-carboxylic acid [cyano-(4-trifluoromethyl-phenyl)-methyl]-amide] | – | – | – | – | –
5 | ≤ 4.70 | ≤ 4.70 | ≤ 4.70 | ≤ 4.70 | 7.85 | CCc1ccc(C(C#N)NC(=O)c2nc(CCNC(=O)c3ccc(C(F)(F)F)cc3OC)n[nH]2)cc1 (stereo not shown) [Example 90, 5-[2-(2-Methoxy-4-trifluoromethyl-benzoylamino)-ethyl]-2H-[1,2,4]triazole-3-carboxylic acid [cyano-(4-ethyl-phenyl)-methyl]-amide] | – | – | – | – | –
